{
  "source": "patent US20210322417A1",
  "about": "“GASTRIC CANCER TREATMENTS” (The Jackson Laboratory, priority 2018, published 2021)",
  "key": {"[1]": {"tested_on": "OE19 cells transduced with non-targeting gRNA", "assay": "Caspase-Glo 3/7 apoptosis assay, control cells", "format": "cell-based, human", "settings": "Lapatinib 48 h treatment", "protocol": "(§1) We examined apoptosis induced by Lapatinib treatment in CSK or PTEN null cells as well as the control cells by measuring caspase-3/7 activation (Caspase-Glo assay).\n(§2) Caspase activity was detected by using Caspase-Glo 3/7 assay kit (Promega). Briefly. The GC cells were seeded in 96-well white luminometer assay plates at a density of 4,000 cells per well and incubated at 37° C. Cells were treated with Lapatinib for 48 h, 100 ul caspase 3/7 reagents were added to each well and incubated for 1 h on rotary shaker at room temperature. The luminescence intensity was measured using a multi-label plate reader (SpectraMax M5, Molecular Devices)."}, "CSK null OE19 cells [2]": {"tested_on": "CSK null OE19 cells", "assay": "Caspase-Glo 3/7 apoptosis assay, CSK null cells", "format": "cell-based, human", "settings": "Lapatinib 48 h treatment", "protocol": "as §1, §2"}, "PTEN null OE19 cells [3]": {"tested_on": "PTEN null OE19 cells", "assay": "Caspase-Glo 3/7 apoptosis assay, PTEN null cells", "format": "cell-based, human", "settings": "Lapatinib 48 h treatment", "protocol": "as §1, §2"}, "CSK null OE19 cells [4]": {"tested_on": "CSK null OE19 cells", "assay": "CellTiter-Glo cell viability assay, CSK null OE19", "format": "cell-based, human", "settings": "6 days", "procedure": "(§3) Then N87 and OE19 cells were infected with the corresponding viruses and the Lapatinib resistance was examined by treating the cells with indicated doses of Lapatinib for 6 days. Cell viability assay was performed as described below at the end of treatment.\n(§4) For the cell viability assays, 4,000 cells/each well in a 96-well plate were treated with indicated drugs for 6 days and cell viabilities were measured using the CellTiter-Glo® luminescent cell viability assay kit according to the manufacturer's instructions (Promega). The luminescence intensity was measured using a multi-label plate reader (SpectraMax M5, Molecular Devices). The cell viabilities were calculated as relative values compared to the untreated controls."}, "PTEN null OE19 cells [5]": {"tested_on": "PTEN null OE19 cells", "assay": "CellTiter-Glo cell viability assay, PTEN null OE19", "format": "cell-based, human", "settings": "6 days", "procedure": "as §3, §4"}, "N87-WT tumors": {"tested_on": "N87-WT tumors", "assay": "Xenograft tumor model, N87-WT", "format": "in vivo, mice", "settings": "lapatinib dosing test, three weeks of treatment", "description": "Tumors were induced by injecting N87-WT. […] Drug treatment was initiated when tumors reached a volume of 150-250 mm^3. Mice were randomly divided into seven treatment groups including 8-10 mice in each group: 1) vehicle only, 2) lapatinib only, 3) lapatinib+trametinib, 4) lapatinib+copanlisib, 5) trametinib+copanlisib, 6) lapatinib+trametinib+copanlisib, and 7) 5-FU."}, "N87-CSK−/− tumors": {"tested_on": "N87-CSK−/− tumors", "settings": "lapatinib dosing test, three weeks of treatment; N87-CSK−/− xenograft, compared to N87-WT"}, "HER2-amplified GC": {"tested_on": "HER2-amplified GC", "settings": "HER2-positive GC patients, clinical trial data; cited from earlier work"}, "N87-PTEN−/− tumors": {"tested_on": "N87-PTEN−/− tumors", "assay": "Xenograft tumor model, N87-PTEN−/−", "settings": "lapatinib dosing test, three weeks of treatment, compared to N87-WT"}, "[6]": {"tested_on": "OE19 cells transduced with non-targeting gRNA", "assay": "CellTiter-Glo cell viability assay, control OE19", "format": "cell-based, human", "settings": "indicated doses of the agent in combination with 0.05 μM Lapatinib, 6 days", "description": "Viral particles were generated as described above."}, "[7]": {"settings": "0.1 μM of the agent in combination with 0.05 μM Lapatinib"}, "[8]": {"settings": "indicated doses of the agent in combination with 0.05 μM Lapatinib"}, "[9]": {"settings": "AZD0530 at highest concentration (1 μM) in combination with 0.05 μM Lapatinib"}},
  "data": [
    {"molecule": "CS(=O)(=O)CCNCc1ccc(-c2ccc3ncnc(Nc4ccc(OCc5cccc(F)c5)c(Cl)c4)c3c2)o1", "note": "[Lapatinib]", "values": [
      {"measurement": "fold of caspase-3/7 activity compared with vehicle treated cells", "setting": "[1]", "result": "3.79±0.16", "unit": "fold"},
      {"measurement": "fold of caspase-3/7 activity compared with vehicle treated cells", "setting": "CSK null OE19 cells [2]", "result": "1.55±0.16", "unit": "fold"},
      {"measurement": "fold of caspase-3/7 activity compared with vehicle treated cells", "setting": "PTEN null OE19 cells [3]", "result": "1.50±0.10", "unit": "fold"},
      {"measurement": "effect on cell growth", "setting": "CSK null OE19 cells [4]; 0.05 μM Lapatinib alone", "result": "could not inhibit the growth"},
      {"measurement": "effect on cell growth", "setting": "PTEN null OE19 cells [5]; 0.05 μM Lapatinib alone", "result": "could not inhibit the growth"},
      {"measurement": "tumor sensitivity to treatment", "setting": "N87-WT tumors", "result": "sensitive to lapatinib treatment"},
      {"measurement": "tumor sensitivity to treatment", "setting": "N87-CSK−/− tumors", "result": "relatively insensitive to lapatinib"},
      {"measurement": "survival", "setting": "HER2-amplified GC", "result": "failed to improve survival"},
      {"measurement": "tumor sensitivity to treatment", "setting": "N87-PTEN−/− tumors", "result": "resistant to lapatinib treatment"}
    ]},
    {"molecule": "COc1c(OCCCN2CCOCC2)ccc2c1N=C(NC(=O)c1cnc(N)nc1)N1CCN=C21", "note": "[Copanlisib]", "values": [
      {"measurement": "effect on cell growth", "setting": "CSK null OE19 cells [4]; [7]", "result": "significantly inhibited the cell growth, but not completely"},
      {"measurement": "effect on cell growth/viability", "setting": "CSK null OE19 cells [4]; [8]", "result": "inhibited the cell growth"},
      {"measurement": "effect on cell growth", "setting": "PTEN null OE19 cells [5]; [7]", "result": "significantly inhibited the cell growth, but not completely"},
      {"measurement": "effect on cell growth/viability", "setting": "PTEN null OE19 cells [5]; [8]", "result": "inhibited the cell growth"},
      {"measurement": "effect on cell growth", "setting": "[6]", "result": "inhibited the cell growth"}
    ]},
    {"molecule": "CN1CCN(CCOc2cc(OC3CCOCC3)c3c(Nc4c(Cl)ccc5c4OCO5)ncnc3c2)CC1", "note": "[AZD0530, Saracatinib]", "values": [
      {"measurement": "cells survived", "setting": "CSK null OE19 cells [4]; [9]", "result": "9.15±0.88", "unit": "%"},
      {"measurement": "cells survived", "setting": "PTEN null OE19 cells [5]; [9]", "result": "42.49±2.54", "unit": "%"}
    ]}
  ]
}
